Key:
[1] = test system: mice with knee joint OA (PMM); test: Mechanical allodynia (von Frey) in surgery-induced (PMM) knee OA mice; format: in vivo; conditions: IA 70 μg/kg twice per week, started at inflammatory pain stage
Description: Drugs are intraarticularly injected (twice/week) at 4 weeks after surgery (early OA stage). *p<0.05; **p<0.01; ***p<0.001; ****p<0.0001. PMM=partial medial meniscectomy.
2006; 33(2):348-354; and Kroin J S, et al. Gene. 2016. 10; 591(1): 1-5). Next, outcomes between IA injection of ZD6474 (also known as vandetanib, a selective inhibitor of Flk1, 70 μg/kg, injection frequency: twice per week) and pazopanib (an inhibitor of both Flt1 and Flk1, 70 μg/kg, injection frequency: twice per week) were compared. Twice perweek IA injection of these drugs was started at an inflammatory pain stage (within a week post-surgery) and continued for 12 weeks. After 12 weeks, joints were harvested, histopathological analyses performed, and pathological grading quantified by standard Osteoarthritis Research Society International (OARSI) scoring (1: Healthy, 5: Highly pathologic) (K. O. Vasquez and J. D. Peterson. J Pharmacol Exp Ther 2017, 361:87-98).
Nanoparticles of PEG-PCL (5k-b-6.5k) encapsulating pazopanib were prepared by the flash nanoprecipitation method using a multi-inlet vortex mixer (MIVM) (FIG. 13, nano-PAZ(I)). The resulting composition was intraarticularly injected into the knee joint of mice at the inflammatory pain stage (at one week after OA induction by surgery).

mice [2] = test: Mechanical hyperalgesia after intrathecal injection in mice; format: in vivo; conditions: intrathecal (i.t.) injection
Description: VEGF-A induces pain hypersensitivity through effects in the peripheral nervous system (PNS) and central nervous system (CNS). IA injection of Flt1 ligand (but not Flk1 ligand) caused mechanical hypersensitivity within 30 min (FIG. 2), showing that Flt1 ligands can directly activate the PNS to induce pain. Additionally, it was reported that animals with chronic OA pain had increased spinal levels of VEGF-A (FIG. 10). […] Given the similar dose (10 ng) and time course of mechanical hyperalgesia following IA injection (FIG. 2) and i.t. injections of VEGF-A (FIG. 11), VEGF signaling appears to be equally able to induce pain hypersensitivity in the PNS and CNS.

mice [3] = conditions: cited from earlier work

| Molecule | time after start of drug injection at which reduction in OA pain was seen [1] [weeks] | pain response (mechanical hyperalgesia) (mice [2]) | mechanical allodynia after IA injection (mice [3]) |
| --- | --- | --- | --- |
| COc1cc2c(Nc3ccc(Br)cc3F)ncnc2cc1OCC1CCN(C)CC1 [ZD6474, vandetanib] | 5 |  |  |
| NGF: nerve growth factor, a well-known OA pain mediator |  | no pain response | acutely increased mechanical allodynia |

Reference: patent publication US12678411B2, “Nanoformulations of pazopanib, compositions comprising the same and methods of treating osteoarthritis” (The United States Government as represented by the …, priority 2021, dated 2026)
